This note sets out measurements from ChEMBL document CHEMBL1201862, “PubChem BioAssay data set” (2004).

Some test systems named below: A549; COLO 205; HCT-15; HOP-92; K562; KM12; M14; MCF7; MDA-MB-435; Malme-3M; NCI-H226; NCI/ADR-RES; OVCAR-5; OVCAR-8; SK-MEL-5; SN12C; T47D; TK-10; U-251; BT-549.
Test in all cases: inhibition of tumour cell growth, NCI panel, 48 h

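Cells were grown in 96-well plates and exposed to each compound for 48 hours at five concentrations; endpoints were interpolated linearly between bracketing concentrations, or set to the highest concentration if not reached. The concentration for 50% growth inhibition is given as GI50.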 Active and inactive are the calls of the source. Rule as the data show it: active = GI50 up to about 1.1 µM and inactive = higher.

Take `CCc1ccc2c(c1)CC1(C2)Cc2cc3c(cc2C1)C(=O)CC3` (centres undefined): the GI50 in the test with A549 was 24.2 µM (inactive); with COLO 205 it was 4.93 µM (inactive); in the test with HCT-15, 23.9 µM; in the test on HOP-92 it was 14.7 µM (inactive); in the test on K562, 3.85 µM (inactive); in the test on KM12 it was 10.5 µM (inactive). The GI50 with M14 was 25.9 µM (inactive); in the test on MCF7, 5.08 µM (inactive); in the test on MDA-MB-435, 2.69 µM (inactive); with Malme-3M, 14.9 µM (inactive); with NCI-H226, 19.7 µM (inactive); in the test on NCI/ADR-RES it was 40.5 µM (inactive). Moreover, the GI50 in the test on OVCAR-5 was 27.5 µM (inactive); in the test with OVCAR-8, 21.9 µM (inactive); with SK-MEL-5, 5.01 µM (inactive); with SN12C it was 27 µM (inactive); with T47D it was 12.1 µM (inactive); with TK-10 it was 38.6 µM (inactive). The GI50 in the test with U-251 was 18.8 µM (inactive).
For `CN1CC[C@@]2(c3cccc(O)c3)CC(=O)/C(=C/c3ccc(Cl)c(Cl)c3)[C@H]1C2`, the GI50 with A549 was 3.28 µM (inactive); in the test with BT-549 it was 2.52 µM (inactive); with HCT-15, 1.98 µM; with HOP-92, 4.49 µM (inactive); in the test on K562, 0.433 µM (active); in the test with M14, 2.25 µM (inactive). In addition, the GI50 in the test on MDA-MB-435 is 1.41 µM (inactive); in the test on Malme-3M it was 3.44 µM (inactive); with NCI/ADR-RES, 2.38 µM (inactive); with OVCAR-5, 4.35 µM (inactive); with OVCAR-8 it was 3.05 µM (inactive); with SK-MEL-5, 2 µM (inactive). In addition, the GI50 in the test on SN12C was 2.04 µM (inactive); with TK-10, 14 µM (inactive); with U-251 it was 1.38 µM (inactive).
Consider `O=c1c2sc3nc(NCCN4CCCCC4)ncc3c2ncn1-c1ccccc1`, for which the GI50 is 40.6 µM (inactive) in the test on A549; 85.9 µM (inactive) in the test with BT-549; 41.3 µM (inactive) in the test with COLO 205; 40.4 µM with HCT-15; 27.3 µM (inactive) in the test on HOP-92; 47.1 µM (inactive) with K562. The GI50 is > 100 µM (inactive) in the test on KM12; 19.6 µM (inactive) in the test with M14; 72.6 µM (inactive) in the test on MDA-MB-435; 20.1 µM (inactive) in the test on Malme-3M; 93.8 µM (inactive) with NCI-H226; 62.5 µM (inactive) with NCI/ADR-RES. Moreover, the GI50 was > 100 µM (inactive) in the test on OVCAR-5; 45.5 µM (inactive) in the test on OVCAR-8; 19.2 µM (inactive) in the test on SK-MEL-5; > 100 µM (inactive) in the test with SN12C; 35.8 µM (inactive) in the test with T47D; 48.3 µM (inactive) in the test on TK-10. Moreover, the GI50 in the test on U-251 was 44.4 µM (inactive).
As to `Cc1cc2c(s1)C(=O)c1sccc1C2=O`, the GI50 with A549 is 0.625 µM (active); with COLO 205, 1.9 µM (inactive); with HCT-15, 1.19 µM; with HOP-92, 1.52 µM (inactive); in the test on K562, 1.91 µM (inactive); in the test with KM12 it was 1.63 µM (inactive). For the same molecule, the GI50 was 0.176 µM (active) in the test on M14; 1.26 µM (inactive) in the test with MCF7; 0.177 µM (active) with MDA-MB-435; 0.168 µM (active) in the test on Malme-3M; 1.76 µM (inactive) with NCI-H226; 0.459 µM (active) with NCI/ADR-RES. Also, the GI50 in the test with OVCAR-5 was 1.86 µM (inactive); in the test with OVCAR-8, 0.424 µM (active); in the test with SK-MEL-5 it was 0.162 µM (active); with SN12C, 0.388 µM (active); in the test on T47D it was 1.63 µM (inactive); in the test with TK-10, 2.85 µM (inactive). Also, in the test on U-251, the GI50 was 1.29 µM (inactive).
`c1ccc(CC2(c3cc4ccccc4[nH]3)OCCO2)nc1`: the GI50 with A549 was > 100 µM (inactive); with BT-549, > 100 µM (inactive); with COLO 205, > 100 µM (inactive); with HCT-15, > 100 µM; in the test on HOP-92, > 100 µM (inactive); with K562, 50.2 µM (inactive). Also, the GI50 with KM12 was > 100 µM (inactive); with M14, > 100 µM (inactive); in the test on MDA-MB-435, > 100 µM (inactive); in the test on Malme-3M, 47.6 µM (inactive); in the test with NCI-H226, 18 µM (inactive); with NCI/ADR-RES, > 100 µM (inactive). Moreover, the GI50 in the test on OVCAR-5, with OVCAR-8, with SK-MEL-5, with SN12C, in the test on T47D and in the test on TK-10 was > 100 µM (inactive) throughout. Moreover, the GI50 in the test with U-251 is > 100 µM (inactive).
For `CCOC(=O)CCc1c(C(=O)OCC)[nH]c(/C=C2\NC(=O)C(C)=C2CC)c1C`, the GI50 with A549 was 40.1 µM (inactive); in the test with COLO 205, > 100 µM (inactive); with HCT-15, 26.1 µM; with HOP-92 it was 16.1 µM (inactive); with K562, > 100 µM (inactive); in the test on KM12, > 100 µM (inactive). The GI50 with M14 is 24.8 µM (inactive); in the test with MCF7 it was 41 µM (inactive); in the test with MDA-MB-435, > 100 µM (inactive); in the test with Malme-3M it was 10.4 µM (inactive); with NCI-H226, 36.5 µM (inactive); in the test on NCI/ADR-RES it was 12.9 µM (inactive). Besides, the GI50 with OVCAR-5 is 25.6 µM (inactive); in the test on OVCAR-8, 5.83 µM (inactive); in the test with SN12C, 32.6 µM (inactive); with T47D, 10.1 µM (inactive); in the test on U-251, 15.3 µM (inactive).
Take `CC(C)(CN1CCCCC1)C(=O)CC(SCCS(=O)(=O)O)c1ccccc1` (centres undefined): the GI50 is 27.4 µM (inactive) in the test on A549; 15.3 µM (inactive) with BT-549; 13.6 µM (inactive) in the test with COLO 205; 8.57 µM with HCT-15; 5.64 µM (inactive) in the test on HOP-92; 2.7 µM (inactive) with K562. Further, the GI50 with KM12 was 18.5 µM (inactive); in the test on M14 it was 9.38 µM (inactive); with MCF7, 10.2 µM (inactive); in the test on MDA-MB-435, 11.3 µM (inactive); with Malme-3M it was 12.7 µM (inactive); in the test with NCI-H226 it was 27.7 µM (inactive). Besides, the GI50 with NCI/ADR-RES is 13.4 µM (inactive); with OVCAR-5, 11.6 µM (inactive); in the test with OVCAR-8, 18.8 µM (inactive); in the test with SK-MEL-5, 16.3 µM (inactive); with SN12C, 20 µM (inactive); in the test on TK-10 it was 16.9 µM (inactive). In addition, the GI50 in the test on U-251 is 21.6 µM (inactive).
With `CC(=O)Nc1nc2c(=O)c3ccccc3sc2s1`, the GI50 with A549 was > 100 µM (inactive); in the test with BT-549, > 100 µM (inactive); with COLO 205, > 100 µM (inactive); in the test with HCT-15, > 100 µM; in the test on K562, > 100 µM (inactive); in the test on KM12, > 100 µM (inactive). For the same molecule, the GI50 in the test on M14 was > 100 µM (inactive); with MCF7, 34.4 µM (inactive); in the test on NCI-H226, > 100 µM (inactive); in the test with NCI/ADR-RES, > 100 µM (inactive); in the test on OVCAR-5, > 100 µM (inactive); in the test with OVCAR-8 it was > 100 µM (inactive). In addition, the GI50 is > 100 µM (inactive) in the test with SK-MEL-5, > 100 µM (inactive) with SN12C, > 100 µM (inactive) with T47D and 87.3 µM (inactive) in the test on TK-10.
On to `CC(C)N1CC2CN(Cc3ccccc3)CC(C1)C2=O`, for which the GI50 in the test with A549 was > 100 µM (inactive); in the test on BT-549 it was > 100 µM (inactive); in the test with COLO 205, > 100 µM (inactive); in the test on HCT-15 it was > 100 µM; in the test with HOP-92 it was > 100 µM (inactive); in the test with K562, > 100 µM (inactive). The GI50 with KM12, with M14, in the test on MCF7, in the test with MDA-MB-435, in the test on Malme-3M and in the test on NCI-H226 was > 100 µM (inactive) each time. Further, the GI50 in the test on NCI/ADR-RES, in the test on OVCAR-5, in the test on OVCAR-8, with SN12C, in the test with TK-10 and in the test with U-251 was > 100 µM (inactive) each time.
On to `N#Cc1nc(NC(=O)c2ccccc2)sc1N`, for which the GI50 in the test with A549 was > 10 µM (inactive); in the test on COLO 205, > 10 µM (inactive); in the test on HCT-15, > 10 µM; in the test with HOP-92, > 10 µM (inactive); with K562, > 10 µM (inactive); in the test with KM12 it was > 10 µM (inactive). Further, the GI50 in the test with M14 was > 10 µM (inactive); in the test on MCF7 it was > 2.22 µM (inactive); in the test on MDA-MB-435, > 10 µM (inactive); in the test on Malme-3M it was > 10 µM (inactive); with NCI-H226, > 10 µM (inactive); in the test on NCI/ADR-RES it was > 9.48 µM (inactive). For the same molecule, the GI50 with OVCAR-5 is > 10 µM (inactive); in the test on OVCAR-8, > 10 µM (inactive); in the test on SK-MEL-5 it was > 10 µM (inactive); with SN12C, > 10 µM (inactive); in the test on T47D, > 4.03 µM (inactive); in the test on TK-10, > 10 µM (inactive). In the test on U-251, the GI50 is > 10 µM (inactive).
In the case of `Cc1[nH]n(-c2ncc(C#N)c(=O)[nH]2)c(=O)c1CCO`, the GI50 with A549 was > 100 µM (inactive); in the test with COLO 205, > 100 µM (inactive); in the test with HCT-15, > 100 µM; in the test with HOP-92, > 100 µM (inactive); with K562, > 100 µM (inactive); with KM12, > 100 µM (inactive). Also, the GI50 in the test with M14, with MCF7, in the test with MDA-MB-435, with Malme-3M, with NCI-H226 and with NCI/ADR-RES was > 100 µM (inactive) in each case. For the same molecule, the GI50 with OVCAR-5, with OVCAR-8, in the test on SK-MEL-5, with SN12C, in the test on T47D and with TK-10 was > 100 µM (inactive) each time. Besides, the GI50 in the test with U-251 was > 100 µM (inactive).
